Source: BigSolDB 2.1

c1ccc2c(c1)sc1ccccc12
solubility (mole fraction)
Settings | in acetonitrile | in ethanol | in formic acid | in isopropanol | in methanol | in n-butanol
278.15 K | 0.00454 | 0.00347 | 0.000475 | 0.00245 | 0.00126 | 0.00485
283.15 K | 0.00611 | 0.00433 | 0.000578 | 0.00347 | 0.00163 | 0.00621
288.15 K | 0.00845 | 0.00529 | 0.000668 | 0.00436 | 0.00192 | 0.00788
293.15 K | 0.0128 | 0.00619 | 0.000756 | 0.00577 | 0.00242 | 0.00999
298.15 K | 0.0157 | 0.0075 | 0.000881 | 0.00703 | 0.0029 | 0.0132
303.15 K | 0.0189 | 0.00919 | 0.000995 | 0.00874 | 0.00331 | 0.016
308.15 K | 0.0241 | 0.0105 | 0.00112 | 0.0111 | 0.00406 | 0.0192
313.15 K | 0.0321 | 0.0127 | 0.00126 | 0.0136 | 0.00478 | 0.0242
318.15 K | 0.0402 | 0.0148 | 0.0014 | 0.0162 | 0.00573 | 0.0303
323.15 K | 0.0506 | 0.0174 | 0.00157 | 0.0202 | 0.00668 | 0.0381
328.15 K | 0.0639 | 0.0206 | 0.00177 | 0.0249 | 0.00795 | 0.0458
